Experiments:
[1] = system: NKG2A+/NKG2C− NK cells; test: NK cell activation markers in NKG2A+/NKG2C- NK cells incubated with peptide and K562 expressing HLA-E (inhibition); format: cell-based, human; settings: for percentage of CCL3+ NK cells / percentage of CD107a+ NK cells / percentage of IFNG+ NK cells / percentage of TNF+ NK cells: NKG2A+/NKG2C- NK cells, K562/HLA-E
Description: (§1) A human immortalized myelogenous leukemia cell line (K562), which expresses HLA-E was incubated with novel peptides (Table 1) derived from the human proteome or human cytomegalovirus proteome. […] Controls assessments were also performed using NKG2A−/NKG2C− cells (Tables 10-13). Inhibition was indicated by a decrease in percent cells positive for cell surface markers, while activation was indicated by an increase in percent cells positive for cell surface markers.

[2] = system: NKG2A−/NKG2C+ NK cells; test: NK cell activation markers in NKG2A-/NKG2C+ NK cells incubated with peptide and K562 expressing HLA-E (activation); format: cell-based, human; settings: for percentage of CCL3+ NK cells / percentage of CD107+ NK cells / percentage of IFNG+ NK cells / percentage of TNF+ NK cells: NKG2A-/NKG2C+ NK cells, K562/HLA-E
Description: as §1

[3] = system: NKG2A−/NKG2C− NK cells; test: NK cell activation markers in control NKG2A-/NKG2C- NK cells incubated with peptide and K562 expressing HLA-E; format: cell-based, human
Description: as §1

[4] = target: T1, HLA-E (Homo sapiens, UniProt P13747); test: HLA-E surface stabilization assay with RMA-S/HLA-E cells; format: cell-based; settings: 30 μM peptide, 16 hours; for HLA-E surface expression stability (GeoMFI): anti-HLA-E antibody
T1 construct: expressed in transfected cells; host or cells: RMA-S/HLA-E cells (antigen processing-defective lymphoma cell line)
Description: HLA-E surface expression was assessed by measuring geometric mean fluorescence intensity (GeoMFI) in RMA-S cells following immunofluorescence staining with an anti-HLA-E antibody (Table 14). Increased GeoMFI was indicative of increased HLA-E surface expression stability following novel peptide exposures (FIG. 3).

[5] = K562 expressing HLA-E, CD107a, IFNG, TNF, CCL3

HLA-E surface expression stability (GeoMFI) ([4]; Trial 1): 1174 GeoMFI | HLA-E surface expression stability (GeoMFI) ([4]; Trial 2): 921 GeoMFI | HLA-E surface expression stability (GeoMFI) ([4]; Trial 3): 887 GeoMFI | HLA-E surface expression stability (GeoMFI) ([4]; Trial 4): 1378 GeoMFI | HLA-E surface expression stabilization strength, approximate GeoMFI ([4]; approximate value): approximately 1×10^3 GeoMFI
Sequence: ILTDRSLWL [human4, peptide FBXO41 670-678 derived from the human proteome]
effect on NKG2A+/NKG2C− NK cell inhibition (in words) [1, 5]: mild inhibitory effects | percentage of CCL3+ NK cells ([1]; Trial 1): 35.5% | percentage of CD107a+ NK cells ([1]; Trial 1): 16.9% | percentage of IFNG+ NK cells ([1]; Trial 1): 5.47% | percentage of TNF+ NK cells ([1]; Trial 1): 1.97% | percentage of CCL3+ NK cells ([1]; Trial 2): 56.4% | percentage of CD107a+ NK cells ([1]; Trial 2): 23.7% | percentage of IFNG+ NK cells ([1]; Trial 2): 8.81% | percentage of TNF+ NK cells ([1]; Trial 2): 4.06% | percentage of CCL3+ NK cells ([1]; Trial 3): 34.7% | percentage of CD107a+ NK cells ([1]; Trial 3): 22% | percentage of IFNG+ NK cells ([1]; Trial 3): 13.3% | percentage of TNF+ NK cells ([1]; Trial 3): 7.29% | percentage of CCL3+ NK cells ([1]; Trial 4): 16.1% | percentage of CD107a+ NK cells ([1]; Trial 4): 15% | percentage of IFNG+ NK cells ([1]; Trial 4): 3.31% | percentage of TNF+ NK cells ([1]; Trial 4): 2.82% | percentage of CCL3+ NK cells ([1]; Trial 5): 32.7% | percentage of CD107a+ NK cells ([1]; Trial 5): 14.8% | percentage of IFNG+ NK cells ([1]; Trial 5): 6.82% | percentage of TNF+ NK cells ([1]; Trial 5): 3.39% | percentage of CCL3+ NK cells ([1]; Trial 6): 13.4% | percentage of CD107a+ NK cells ([1]; Trial 6): 12.8% | percentage of IFNG+ NK cells ([1]; Trial 6): 3.02% | percentage of TNF+ NK cells ([1]; Trial 6): 2.79% | effect on NKG2A−/NKG2C+ NK cell activation (in words) [2, 5]: strong activating effects | percentage of CCL3+ NK cells ([2]; Trial 1): 77.9% | percentage of CD107+ NK cells ([2]; Trial 1): 76.7% | percentage of IFNG+ NK cells ([2]; Trial 1): 62.2% | percentage of TNF+ NK cells ([2]; Trial 1): 49.6% | percentage of CCL3+ NK cells ([2]; Trial 2): 87.9% | percentage of CD107+ NK cells ([2]; Trial 2): 79.5% | percentage of IFNG+ NK cells ([2]; Trial 2): 70.5% | percentage of TNF+ NK cells ([2]; Trial 2): 57.3% | percentage of CCL3+ NK cells ([2]; Trial 3): 84.4% | percentage of CD107+ NK cells ([2]; Trial 3): 84.8% | percentage of IFNG+ NK cells ([2]; Trial 3): 75.9% | percentage of TNF+ NK cells ([2]; Trial 3): 65.5% | percentage of CCL3+ NK cells ([2]; Trial 4): 74% | percentage of CD107+ NK cells ([2]; Trial 4): 73.4% | percentage of IFNG+ NK cells ([2]; Trial 4): 66.6% | percentage of TNF+ NK cells ([2]; Trial 4): 57.4% | percentage of CCL3+ NK cells ([2]; Trial 5): 81.2% | percentage of CD107+ NK cells ([2]; Trial 5): 77.9% | percentage of IFNG+ NK cells ([2]; Trial 5): 70.4% | percentage of TNF+ NK cells ([2]; Trial 5): 64.7% | percentage of CCL3+ NK cells ([2]; Trial 6): 64.6% | percentage of CD107+ NK cells ([2]; Trial 6): 64.2% | percentage of IFNG+ NK cells ([2]; Trial 6): 54% | percentage of TNF+ NK cells ([2]; Trial 6): 43% | percentage CCL3+ NK cells ([3]; Trial 1): 37.2% | percentage CD107+ NK cells ([3]; Trial 1): 27.2% | percentage TNF+ NK cells ([3]; Trial 1): 3.99% | percentage of IFNG+ NK cells ([3]; Trial 1): 15.4% | percentage CCL3+ NK cells ([3]; Trial 2): 56.3% | percentage CD107+ NK cells ([3]; Trial 2): 33.5% | percentage TNF+ NK cells ([3]; Trial 2): 7.5% | percentage of IFNG+ NK cells ([3]; Trial 2): 20.8% | percentage CCL3+ NK cells ([3]; Trial 3): 48.3% | percentage CD107+ NK cells ([3]; Trial 3): 44% | percentage TNF+ NK cells ([3]; Trial 3): 13.8% | percentage of IFNG+ NK cells ([3]; Trial 3): 33.7% | percentage CCL3+ NK cells ([3]; Trial 4): 35.9% | percentage CD107+ NK cells ([3]; Trial 4): 32.1% | percentage TNF+ NK cells ([3]; Trial 4): 10.2% | percentage of IFNG+ NK cells ([3]; Trial 4): 19.3% | percentage CCL3+ NK cells ([3]; Trial 5): 25% | percentage CD107+ NK cells ([3]; Trial 5): 19.2% | percentage TNF+ NK cells ([3]; Trial 5): 5.02% | percentage of IFNG+ NK cells ([3]; Trial 5): 13.7% | percentage CCL3+ NK cells ([3]; Trial 6): 25.1% | percentage CD107+ NK cells ([3]; Trial 6): 22.6% | percentage TNF+ NK cells ([3]; Trial 6): 5.37% | percentage of IFNG+ NK cells ([3]; Trial 6): 12.1%

— patent US20240092835A1, “NOVEL PEPTIDES CAPABLE OF ALTERING NK CELL ACTIVITY” (Massachusetts Institute of Technology, priority 2022, published 2024)
